Consider ten compounds from ChEMBL document CHEMBL4376825, “Dual Inhibitors of Human DNA Topoisomerase II and Other Cancer-Related Targets” (J Med Chem, 2020).

A short description of data set [1]: Selectivity ratio of IC50 for […] cells to IC50 for human RPMI8226/S cells. The format is functional.
The nature of data set [2]: Cytotoxicity against […] cells after 4 hrs by MTT assay. It is filed as functional, cell-based. (In general: Tetrazolium assays rely on reduction of a dye to a coloured formazan, in cell work by metabolically active cells.)
Data set [3] in a line: Cytotoxicity against human RPMI8226/S cells after 4 hrs by MTT assay. The format is functional, cell-based.
For a further data set, the system named is P388. Nature of the data set: Antitumor activity against mouse P388 cells implanted in ip dosed B6D2F1 mouse assessed as T/C value administered for 4 days. It is filed as functional.
Data set [4] is described as follows: Half life in human. The format is ADME.
Another data set concerns U-87 MG. The data set is described as follows: Antiproliferative activity against human U87 cells after 72 hrs by sulforhodamine B assay. The format is functional, cell-based, U-87MG ATCC.
A further data set relates to DLD-1. The data set is described as follows: Antiproliferative activity against human DLD1 cells after 72 hrs by sulforhodamine B assay. It is filed as functional, cell-based. To be noted: DLD-1, 72 h. Background: In SRB staining, fixed cells bind dye roughly in proportion to their protein.
The test system of data set [5] is Proteasome. Nature of the data set: Inhibition of proteasome in human K562 cells assessed as half life of mitoxantrone-induced Topoisomerase 2alpha-DNA complexes by measuring half life of complex at 50 uM incubated for 2 hrs followed by mitoxantrone washout and measured up to […] by TARDIS assay (reference value: 10 hrs). The format is subcellular.
Data set [6] has as its system Proteasome. The data set is described as follows: Inhibition of proteasome in human K562 cells assessed as half life of etoposide-induced Topoisomerase 2alpha-DNA complexes at 50 uM incubated for 2 hrs followed by etoposide washout and measured up to 120 mins by TARDIS assay (reference value: 0.5 hrs). The format is subcellular.
A further data set deals with HeLa. The data set is described as follows: Antiproliferative activity against human HeLa cells after 72 hrs by sulforhodamine B assay. It is filed as functional, cell-based.
A further data set has as its system Bel-7402. Nature of the data set: Antiproliferative activity against human Bel7402 cells after 72 hrs by sulforhodamine B assay. The format is functional, cell-based. The following applies: Bel-7402, 72 h.

Molecules are shown by their SMILES. Residues, ends and D or L forms follow the SMILES beside them. *: point of attachment. Cbz = O=C(OCc1ccccc1)*

`N[C@@H]1CCN(c2c(F)cc3c(=O)c(C(=O)O)cn4c3c2Oc2c-4ccc3c2ccc2ccccc23)C1`: the “Ratio IC50” value in data set [1] is 1.6. The half-maximal inhibitory concentration (IC50) in data set [2] amounted to 500 nM; in [3], 320 nM.

Regarding `N[C@H]1CCN(c2c(F)cc3c(=O)c(C(=O)O)cn4c3c2Oc2c-4ccc3c2ccc2ccccc23)C1`, in [1], the “Ratio IC50” value was 4. The half-maximal inhibitory concentration (IC50) in [2] stood at 2800 nM; in [3], 690 nM.

Take `Cc1cnc(NCCCN(C)C)c2c1[nH]c1ccc3cc(O)ccc3c12` [INTOPLICINE]: in the data set on P388, the T/C is given as 270%.

In the case of `COc1cccc2c1C(=O)c1c(O)c3c(c(O)c1C2=O)C[C@@](O)(C(=O)CO)C[C@@H]3O[C@H]1C[C@H](N)[C@H](O)[C@H](C)O1` [DOXORUBICIN], the half-life in data set [4] was 4 min. In data set [1], the “Ratio IC50” value was found to be 8.7. The results for the IC50 in [2] and in data set [3] were 320 nM and 37 nM, respectively.

In data set [4], `CC[C@@]1(O)C(=O)OCc2c1cc1n(c2=O)Cc2cc3ccccc3nc2-1` [CAMPTOTHECIN] registered a half-life of 71 to 90 min.

In the case of `Cc1cnc(NCCCN(C)C)c2c1[nH]c1ccc3ccccc3c12`, the T/C in the data set with P388 worked out at 150%.

Regarding `CCCCC(C#CC(=O)OC)O/C=C/C(=O)OC` (stereo not given), the IC50 in the data set with U-87 MG stood at 4.9 µM; in the data set on DLD-1, 850 nM.

As for `CC(C)C[C@@H](C=O)NC(=O)[C@H](CC(C)C)NC(=O)[C@H](CC(C)C)NC(=O)OCc1ccccc1` (Cbz-Leu-Leu-Leu-aldehyde), the T1/2 is over 24 h in the data set with Proteasome [5] and over 2 h in the data set on Proteasome [6].

As to `COc1ccc2c(ccc3c2c2c(NCCCN(C)C)ncc(C)c2n3C)c1`, in the data set with P388, the T/C worked out at 150%.

With `COc1ccc(O)c(C(=O)c2cnc3[nH]c4ccccc4c3c2)c1`, the results for the IC50 in the data set with HeLa and in the data set with Bel-7402 were 60 nM and 830 nM, respectively.

By IC50 is commonly meant the midpoint of a concentration-inhibition curve. Higher therefore signals a need for much substance. Usually T/C stands for the ratio of treated to control. In general, half-life refers to the time needed for the level to fall by half in the phase considered. A higher half-life goes with slow loss.
